# Tests used:
# [1] = Study METO-IN-006: open-label, randomized, 4-treatment crossover pharmacokinetic/bioequivalence study of intranasal metoclopramide (Gimoti 15, 16, 17 mg) vs Reglan Tablets 10 mg; format: in vivo, human; settings: for AUC0-inf Inter-CV % (Between-Subject) / AUC0-inf Intra-CV % (Within-Subject) / AUC0-t Inter-CV % (Between-Subject) / AUC0-t Intra-CV % (Within-Subject) / Cmax Inter-CV % (Between-Subject) / Cmax Intra-CV % (Within-Subject): bioequivalence analysis over all treatments
# Excerpt: In the study, approximately 108 healthy subjects may be enrolled to allow approximately 100 subjects to complete the study.
# The pharmacokinetic study will be an open-label, randomized, 4-treatment, 4-period, 4-sequence crossover study. […] Further, the subjects will undergo screening, in which the eligibility of the subjects will be assessed after completion of inclusion and exclusion criteria. […] Samples will be collected over many hours after the dose. Subjects will return to the clinic after the minimum washout for subsequent doses until the four-period cross-over is completed.
# Blood samples will be collected prior to dosing, and at predetermined time periods after each dose. […] Relevant pharmacokinetic parameters will be summarized using descriptive statistics.
# Collect blood from a subject. • 2. Gently mix the collected blood prior to centrifugation and place immediately on ice. • 3. Centrifuge the sample in a refrigerated centrifuge. • 4. Immediately following centrifugation, gently remove plasma from the packed cells. • 5. Freeze the plasma samples immediately at approximately −20° C. or lower.
# [2] = as above; format: in vivo, human; settings: overall population; 16 and 17 mg doses; prior comparative bioavailability study
# [3] = Reglan package insert; cited from earlier work
compound,measurement,setting,value
"CCN(CC)CCNC(=O)c1cc(Cl)c(N)cc1OC [metoclopramide, 4-amino-5-chloro-N-(2-(diethylamino)ethyl)-2-methoxybenzamide]",AUC0-inf Inter-CV % (Between-Subject),[1]; Female,43.72%
same,AUC0-inf Intra-CV % (Within-Subject),[1]; Female,48.14%
same,AUC0-t Inter-CV % (Between-Subject),[1]; Female,43.12%
same,AUC0-t Intra-CV % (Within-Subject),[1]; Female,52.62%
same,Cmax Inter-CV % (Between-Subject),[1]; Female,35.03%
same,Cmax Intra-CV % (Within-Subject),[1]; Female,58.04%
same,AUC0-inf Inter-CV % (Between-Subject),[1]; Male,44.81%
same,AUC0-inf Intra-CV % (Within-Subject),[1]; Male,55.82%
same,AUC0-t Inter-CV % (Between-Subject),[1]; Male,52.65%
same,AUC0-t Intra-CV % (Within-Subject),[1]; Male,62.88%
same,Cmax Inter-CV % (Between-Subject),[1]; Male,54.25%
same,Cmax Intra-CV % (Within-Subject),[1]; Male,78.31%
same,"AUC∞, AUCt, and Cmax, women versus men",[1]; each dose of metoclopramide tested,significantly higher in women than in men
same,"Treatment Emergent Adverse Events (TEAEs) and other safety parameters, males vs females",[1]; review of data of both studies,no differences between males and females
same,bioequivalence criteria for AUC,[2],met the bioequivalence criteria
same,plasma protein binding,[3],approximately 30%
same,volume distribution of metoclopramide,[3],approximately 3.5 L/kg

# — US20200276139A1 (Evoke Pharma, Inc., priority 2017, published 2020)
